Patent USRE48461E1, “Modulation of androgen receptor expression” (Ionis Pharmaceuticals, Inc., priority 2012, dated 2021)

Assays:
Assay type in all cases: cell-based, human
C4-2B cells = test: C4-2B cell proliferation (complete or CSS+DHT medium; Example 30); settings: 5 days; for Proliferation (% untreated control): C4-2B cells
Procedure: After a treatment period of 5 days in complete medium or CSS+1 nM DHT medium, the proliferative capacity of the cancer cells was measured with using CellTiter 96® AQueous One or CellTiter-Glo® Solution Cell Proliferation kit (Promega), following the manufacturer's instructions.

PSA mRNA [1] = test: PSA expression in C4-2B cells (Example 30); settings: 48 hrs
In short: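 C4-2B cells were plated at 1,000 cells per well in complete medium, or at 2,000 cells per well in CSS medium with 1 nM DHT. ISIS 549148 served as the negative control. AR, PSA and TMPRSS2 RNA levels were measured after 48 hrs.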

TMPRSS2 mRNA = test: TMPRSS2 expression in LNCaP cells (complete, CSS+DHT medium); settings: for Percent inhibition of TMPRSS2 expression in LNCaP cells cultured in CSS + DHT medium: CSS + DHT (1 nM) medium, 48 hrs; for Percent inhibition of TMPRSS2 expression in LNCaP cells cultured in complete medium: 48 hours
In short: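 LNCaP cells treated with antisense oligonucleotides, ISIS 549148 as negative control; AR, PSA and TMPRSS2 RNA measured after 48 h. Complete medium used 1,000 cells/well; stripped-serum condition used 2,000 cells/well in phenol red-free RPMI with 5% charcoal-stripped serum, with 1 nM DHT (final) added 4 h after treatment.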

VCaP cells = test: VCaP cell proliferation; settings: 5 days; for Proliferation (% untreated control): VCaP cells
In short: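 VCaP cells treated 5 days in complete medium or charcoal-stripped serum medium with 1 nM DHT; proliferation read by CellTiter 96 AQueous One or CellTiter-Glo.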

C4-2 cells = test: C4-2 cell proliferation (complete or CSS+DHT medium); settings: 5 days; for Proliferation (% untreated control): C4-2 cells
Procedure: After a treatment period of 5 days in complete medium or CSS+1 nM DHT medium, the proliferative capacity of the cancer cells was measured with using CellTiter 96® AQueous One Solution or CellTiter-Glo® Cell Proliferation kit (Promega), following the manufacturer's instructions. […] The proliferative capacity of cells cultured in CSS medium without DHT is 17% of untreated control levels.

PSA mRNA [2] = test: PSA expression in 22RV1 cells; settings: RNAiMax, 48 hrs
In short: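 In 22RV1 cells, full-length AR, AR-V7, PSA and TMPRSS2 RNA measured after 48 h compound incubation. Complete-medium format used 1,000 cells/well; CSS+DHT format used 2,000 cells/well cultured 16 h in CSS medium, with 1 nM DHT added after 4 h.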

AR mRNA = test: Time-course AR mRNA expression in C4-2B cells (8, 24, 48 hours); settings: for Percent expression of AR compared to the control group in 8 hours / Percent expression of AR compared to the control group in 48 hours / Percent expression of AR compared to the control group in 24 hours: C4-2B cells
Procedure: C4-2B cells were plated at 1,000 cells per well in complete medium. […] After a treatment period of 8 hours, 24 hours, and 48 hours, AR expression was measured with primer probe set hAR-LTS00943.

[3] = complete medium or CSS+1 nM DHT

TGATTTAATGGTTGCA [ISIS 569236] (cEt/MOE gapmer chemistry, further chemistry not given here) [targets intron 1]
Proliferation (% untreated control) (C4-2B cells; CSS + DHT medium, 0.04 μM): 109 % untreated control | Proliferation (% untreated control) (C4-2B cells; CSS + DHT medium, 0.2 μM): 109 % untreated control | Proliferation (% untreated control) (C4-2B cells; CSS + DHT medium, 1 μM): 67 % untreated control | Proliferation (% untreated control) (C4-2B cells; CSS + DHT medium, 5.0 μM): 39 % untreated control | Proliferation (% untreated control) (C4-2B cells; complete medium, 0.04 μM): 98 % untreated control | Proliferation (% untreated control) (C4-2B cells; complete medium, 0.2 μM): 64 % untreated control | Proliferation (% untreated control) (C4-2B cells; complete medium, 1 μM): 55 % untreated control | Proliferation (% untreated control) (C4-2B cells; complete medium, 5.0 μM): 48 % untreated control | proliferation of C4-2B cells (C4-2B cells; [3]): reduced proliferation of the cells in a dose dependent compared to the control | Percent inhibition of PSA expression (PSA mRNA [1]; CSS + DHT medium, 0.04 μM): 0% | Percent inhibition of PSA expression (PSA mRNA [1]; CSS + DHT medium, 0.2 μM): 5% | Percent inhibition of PSA expression (PSA mRNA [1]; CSS + DHT medium, 1 μM): 33% | Percent inhibition of PSA expression (PSA mRNA [1]; CSS + DHT medium, 5.0 μM): 46% | Percent inhibition of PSA expression (PSA mRNA [1]; complete medium, 0.04 μM): 30% | Percent inhibition of PSA expression (PSA mRNA [1]; complete medium, 0.2 μM): 72% | Percent inhibition of PSA expression (PSA mRNA [1]; complete medium, 1 μM): 81% | Percent inhibition of PSA expression (PSA mRNA [1]; complete medium, 5.0 μM): 89% | Percent inhibition of TMPRSS2 expression in LNCaP cells cultured in CSS + DHT medium (TMPRSS2 mRNA; 0.04 μM): 6% | Percent inhibition of TMPRSS2 expression in LNCaP cells cultured in CSS + DHT medium (TMPRSS2 mRNA; 0.2 μM): 8% | Percent inhibition of TMPRSS2 expression in LNCaP cells cultured in CSS + DHT medium (TMPRSS2 mRNA; 1 μM): 40% | Percent inhibition of TMPRSS2 expression in LNCaP cells cultured in CSS + DHT medium (TMPRSS2 mRNA; 5.0 μM): 50% | Percent inhibition of TMPRSS2 expression in LNCaP cells cultured in complete medium (TMPRSS2 mRNA; 0.04 μM): 0% | Percent inhibition of TMPRSS2 expression in LNCaP cells cultured in complete medium (TMPRSS2 mRNA; 0.2 μM): 5% | Percent inhibition of TMPRSS2 expression in LNCaP cells cultured in complete medium (TMPRSS2 mRNA; 1 μM): 40% | Percent inhibition of TMPRSS2 expression in LNCaP cells cultured in complete medium (TMPRSS2 mRNA; 5.0 μM): 48% | Proliferation (% untreated control) (VCaP cells; CSS + DHT medium, 1.34 nM): 83 % untreated control | Proliferation (% untreated control) (VCaP cells; CSS + DHT medium, 4.0 nM): 68 % untreated control | Proliferation (% untreated control) (VCaP cells; CSS + DHT medium, 13.4 nM): 61 % untreated control | Proliferation (% untreated control) (VCaP cells; CSS + DHT medium, 40 nM): 45 % untreated control | Proliferation (% untreated control) (VCaP cells; complete medium, 1.34 nM): 98 % untreated control | Proliferation (% untreated control) (VCaP cells; complete medium, 4.0 nM): 76 % untreated control | Proliferation (% untreated control) (VCaP cells; complete medium, 13.4 nM): 68 % untreated control | Proliferation (% untreated control) (VCaP cells; complete medium, 40 nM): 59 % untreated control | proliferation of VCaP cells (VCaP cells; [3]): reduced proliferation of the cells in a dose dependent compared to the control | Proliferation (% untreated control) (C4-2 cells; CSS + DHT medium, 0.04 μM): 99 % untreated control | Proliferation (% untreated control) (C4-2 cells; CSS + DHT medium, 0.2 μM): 99 % untreated control | Proliferation (% untreated control) (C4-2 cells; CSS + DHT medium, 1 μM): 88 % untreated control | Proliferation (% untreated control) (C4-2 cells; CSS + DHT medium, 5.0 μM): 51 % untreated control | Proliferation (% untreated control) (C4-2 cells; complete medium, 0.04 μM): 103 % untreated control | Proliferation (% untreated control) (C4-2 cells; complete medium, 0.2 μM): 81 % untreated control | Proliferation (% untreated control) (C4-2 cells; complete medium, 1 μM): 57 % untreated control | Proliferation (% untreated control) (C4-2 cells; complete medium, 5.0 μM): 58 % untreated control | proliferation of C4-2 cells (C4-2 cells; [3]): reduced proliferation of the cells in a dose dependent manner compared to the control | Percent inhibition of PSA expression (PSA mRNA [2]; CSS + DHT medium, 1.34 nM): 28% | Percent inhibition of PSA expression (PSA mRNA [2]; CSS + DHT medium, 4.0 nM): 49% | Percent inhibition of PSA expression (PSA mRNA [2]; CSS + DHT medium, 13.4 nM): 70% | Percent inhibition of PSA expression (PSA mRNA [2]; complete medium, 1.34 nM): 0% | Percent inhibition of PSA expression (PSA mRNA [2]; complete medium, 4.0 nM): 17% | Percent inhibition of PSA expression (PSA mRNA [2]; complete medium, 13.4 nM): 25% | Percent inhibition of PSA expression (PSA mRNA [2]; complete medium, 40 nM): 7% | Percent expression of AR compared to the control group in 8 hours (AR mRNA; 0.04 μM): 100% | Percent expression of AR compared to the control group in 48 hours (AR mRNA; 0.04 μM): 80% | Percent expression of AR compared to the control group in 8 hours (AR mRNA; 0.2 μM): 87% | Percent expression of AR compared to the control group in 24 hours (AR mRNA; 0.2 μM): 35% | Percent expression of AR compared to the control group in 48 hours (AR mRNA; 0.2 μM): 19% | Percent expression of AR compared to the control group in 8 hours (AR mRNA; 1 μM): 84% | Percent expression of AR compared to the control group in 24 hours (AR mRNA; 1 μM): 15% | Percent expression of AR compared to the control group in 48 hours (AR mRNA; 1 μM): 7% | Percent expression of AR compared to the control group in 8 hours (AR mRNA; 5.0 μM): 58% | Percent expression of AR compared to the control group in 24 hours (AR mRNA; 5.0 μM): 5% | Percent expression of AR compared to the control group in 48 hours (AR mRNA; 5.0 μM): 2% | AR expression (AR mRNA; C4-2B cells, 8, 24 and 48 hours): reduced AR expression in the cells relative to the control set
